What all share (type): cell-based, human
The test system of assay [1] is BCL-2 gene expression in lung cancer cell lines. In words: qRT-PCR gene expression, BCL-2. As to conditions: treated lung cancer cell lines vs negative control; descending order 7g, Dox, 7a. As to the method:
(§1) The RNeasy Mini Kit (Qiagen, Hilden, Germany), augmented with a DNaseI (Qiagen) digestion step, was employed to extract total RNA from lung cancer cell lines following the manufacturer's procedure. The isolated total RNA was treated with one unit of RQ1 RNAse-free DNAse (Invitrogen, Germany) to eliminate DNA remnants, re-suspended in DEPC-treated water, and quantified photometrically at 260 nm. The purity of total RNA was evaluated using the 260/280 nm ratio, which ranged from 1.8 to 2.1.[27]
(§2) Furthermore, integrity was confirmed using ethidium bromide-stained examination of 28S and 18S bands via formaldehyde-containing agarose gel electrophoresis. Aliquots were utilized immediately for reverse transcription (RT); otherwise, they were preserved at −80 °C.
(§3) The poly(A) + RNA extracted from the lung cancer cell lines was reverse transcribed into the cDNA in a total amount of 20 μl utilizing the Revert Aid TM First Strand cDNA Synthesis Kit (Fermentas, Germany). A total of 5 μg of RNA was utilized with a master mix. The master mix comprised 50 mM MgCl2, 10× RT buffer (50 mM KCl; 10 mM Tris–HCl; pH 8.3), 10 mM of each dNTP, 50 μM oligo-dT primer, 20 IU ribonuclease inhibitor (50 kDa recombinant enzyme to suppress RNase activity), and 50 IU MuLV reverse transcriptase. Each sample mixture was centrifuged for 30 seconds at 1000 g and thereafter transferred to the thermocycler. The RT reaction was conducted at 25 °C for 10 minutes, subsequently at 42 °C for 1 hour, and concluded with a denaturation phase at 99 °C for 5 minutes. Subsequently, the reaction tubes containing RT-prepared samples were rapidly chilled in an ice chamber prior to cDNA amplification via the quantitative real-time polymerase chain reaction (qRT-PCR).
(§4) The cDNA copy number of lung cancer cell lines was determined using the StepOne™ Real-Time PCR System from Applied Biosystems (Thermo Fisher Scientific, Waltham, MA, USA). […]
(§5) The reaction protocol was divided into three stages. […] The relative quantification of the target gene to the reference gene was assessed using the 2^−ΔΔCT method.[29–31]
In general terms: Real-time PCR tracks product formation cycle by cycle.

Assay [2] has as its system BAX gene expression in lung cancer cell lines. In words: qRT-PCR gene expression, BAX. The following applies: treated lung cancer cell line vs negative control; order 7g, Dox, 7a. On the procedure: as §1, §2, §3, §4, §5
The subject of assay [3] is lung cancer cell lines (A549). In words: DNA fragmentation assay (diphenylamine reaction). The following applies: for DNA fragmentation Change: change vs negative control; for DNA fragmentation% (M ± SEM): negative control 12.54 ± 0.45. On the procedure:
The DNA fragmentation assay in lung cancer cell lines was performed in accordance with the protocol established by Yawata (1998)[34] with some modifications. […] The low-molecular-weight genomic DNA was extracted as described in Yawata (1998).[34] Approximately 1 × 10^6 cells of each treatment were plated. All the cells (including floating cells) were harvested and washed with Dulbecco's phosphate buffered saline. The cancer cells were lysed with the lysis buffer containing 10 mM Tris (pH 7.4), 150 mM NaCl, 5 mM ethylenediaminetetraacetic acid (EDTA), and 0.5% Triton X-100 for 30 min on ice. Lysates were vortexed and cleared by centrifugation at 10 000 g for 20 min. Fragmented DNA in the supernatant was extracted with an equal volume of a neutral phenol : chloroform : isoamyl alcohol mixture (25 : 24 : 1) and analyzed electrophoretically on 2% agarose gels containing 0.1 μg ml^−1 ethidium bromide.
The lung cancer cell lines (A549) were used to determine the quantitative profile of the DNA fragmentation. […] The cancer cells were lysed in 0.5 ml of lysis buffer containing 10 mM Tris–HCl (pH 8), 1 mM EDTA, and 0.2% Triton X-100 and centrifuged at 10 000 rpm (Eppendorf) for 20 min at 4 °C. The pellets were re-suspended in 0.5 ml of lysis buffer. To the pellets (P) and the supernatants (S), 0.5 ml of 25% tri-chloroacetic acid (TCA) was added and incubated at 4 °C for 24 h. The cells were then centrifuged for 20 min at 10 000 rpm (Eppendorf) at 4 °C and the pellets were suspended in […] of 5% TCA, followed by incubation at 83 °C for 20 min. Subsequently, to each cell sample, […] of diphenylamine (DPA) solution [150 mg DPA in 10 ml glacial acetic acid, […] of sulfuric acid and […] acetaldehyde (16 mg ml^−1)] was added and incubated at room temperature for 24 h (Gibb et al.,[35] 1997). The proportion of the fragmented DNA was calculated from the absorbance values at 600 nm wavelength using the formula:% fragmented DNA = [OD(S)/[OD(S) + OD(P)]] × 100(OD: optical density, S: supernatants, P: pellets).

Values joined by “and” are separate entries in the source; they are usually repeats but may differ in a detail not shown here. Identical values can stand only once.

Turning to `COc1ccc(-c2nn(-c3ccccc3)c3nc(=O)c(C)nn23)cc1` [Compound 7g, 3-(4-Methoxyphenyl)-6-methyl-1-phenyl-[1,2,4]triazolo[4,3-b][1,2,4]triazin-7(1H)-one], in assay [1], the “BCL-2 (anti-apoptotic gene) expression level” value was “diminished”. Also, the “BAX (pro-apoptotic gene) expression level” value (from here on “BAX”) in assay [2] is reported as “elevated”. In addition, in assay [3], the “DNA fragmentation Inhibition%” value amounted to 17.74%; the “DNA fragmentation Change” value is 13.03; the “DNA fragmentation% (M ± SEM)” value was 25.57 ± 0.94% and 25.57 ± 0.94^b %.

In the case of `Cc1nn2c(C)nn(-c3ccc([N+](=O)[O-])cc3)c2nc1=O` [Compound 7a, 3,6-Dimethyl-1-(4-nitrophenyl)-[1,2,4]triazolo[4,3-b][1,2,4]triazin-7(1H)-one], the “BCL-2 (anti-apoptotic gene) expression level” value in assay [1] is given as “diminished”. Moreover, the “BAX” value in assay [2] is listed as “elevated”. Also, in assay [3], the “DNA fragmentation Inhibition%” value was determined as 27.78%; the “DNA fragmentation Change” value was determined as 20.24; the “DNA fragmentation% (M ± SEM)” value was 32.78 ± 1.35% and 32.78 ± 1.35^a %.

Take `COc1cccc2c1C(=O)c1c(O)c3c(c(O)c1C2=O)C[C@@](O)(C(=O)CO)C[C@@H]3O[C@H]1C[C@H](N)[C@H](O)[C@H](C)O1` [Dox, Doxorubicin, reference compound]: the “BCL-2 (anti-apoptotic gene) expression level” value in assay [1] is “diminished”. Further, in assay [2], the “BAX” value is “elevated”. In addition, in assay [3], the “DNA fragmentation Inhibition%” value amounted to 19.69% and the “DNA fragmentation Change” value is 15.84.

The record behind these values is paper PMC11862990, “Utility of 6-aza-2-thiothymine in the synthesis of novel [1,2,4]triazolo[4,3-b][1,2,4]triazin-7-one derivatives: synthesis, structure elucidation, molecular docking and in vitro anti-lung cancer activity” (RSC Advances, 2025).
